Three compounds from ChEMBL document CHEMBL1150581, “Batzelline D and isobatzelline E from the indopacific sponge Zyzzya fuliginosa” (J Nat Prod, 2002) can be followed below.

The nature of test [1]: Inhibition of HIV1 env protein assessed as inhibition of env expressing african green monkey BSC1 cell fusion with mouse NIH3T3 cell expressing CXCR4 and Escherichia coli T7 after 2.5 hrs by beta galactosidase report gene assay. To be noted: Human immunodeficiency virus 1, NIH3T3, 2.5 h.
A further test concerns NIH3T3. Kind of test: Inhibition of HIV1 env protein assessed as inhibition of env expressing african green monkey BSC1 cell fusion with mouse NIH3T3 cell expressing CXCR4 and Escherichia coli T7 at 1 ug/ml after 2.5 hrs by beta galactosidase report gene assay. As to conditions: Human immunodeficiency virus 1.

pIC50: −log10 of the molar value. Active and inactive are the calls of the source. The rule behind the calls is not given here.

With `Cn1cc2c3c1C(=O)C(N)=CC3=[N+](C)CC2` [MAKALUVAMINE H], the pIC50 in test [1] is 5.30. Further, the result with NIH3T3 was Active.

In the case of `Cn1cc2c3c1C(=O)C(N)=CC3=NCC2` [MAKALUVAMINE A], the pIC50 in test [1] was 5.30. In the test with NIH3T3, the outcome was Active.

Take `Cn1cc2c3c1C(=O)C(N)=C(Cl)C3=NCC2` [ISOBATZELLINE C]: in test [1], the pIC50 was 6.70. The outcome in the test with NIH3T3 was Active.

One may read the pIC50 as the IC50 on a negative log10 scale, so that one unit is a factor of ten.
